Measurements: article PMC11212140, “Molecular Bidents with Two Electrophilic Warheads as a New Pharmacological Modality” (ACS Central Science, 2024)

How the values were obtained:
Test in all cases: KiNativ profiling in H3255 cells
Format in all cases: cell-based, human
BARK1 = tested on: T1, BARK1; details: 2.5 µM; Lys2; DLKPANILLDEHGHVR
T1 construct: purchased ActivX Biosciences (KiNativ)
Description: (§1) treatment. Cell viability was determined by using CellTiter-Glo (Promega #G7571) according to the manufacturer’s instructions, measuring luminescence using an Envision plate-reader (PerkinElmer Inc.). Dose-response curves were generated using non-linear regression curve fit in GraphPad Prism 9.2.0(GraphPad Software).
(§2) Cellular target engagement assays
(§3) After 6 hours treatment, cells were pelleted, washed with PBS once and lysed with IP lysis buffer (25mMTris-HCl pH 7.4, 150mM NaCl, 1 mM EDTA, 1% NP-40 and 5% glycerol) (Thermo Fisher Scientific, Cat#87788) containing protease/phosphatase inhibitor cocktail (Roche). The protein concentrations were measured by BCA analysis (Pierce). Cell lysates were incubated with 1 μM of biotin conjugated probe (bio-Osimertinib or bio-ZNL-0013) at 4 ℃ overnight, and incubated for 3 more hours at room temperature. Lysates with probe were then incubated with streptavidin beads (Thermo Fisher, #20349) for 2 hours at 4 ℃. The protein-probe complexes on the beads were then subjected to immunoblotting.
(§4) H3255 cells were plated with 6.5x10^6 per condition in fresh media in 15 cm plates and treated the 80% confluency for 2 hours with DMSO or 2.5 μM of ZNL-0056. To harvest cells, plates were washed 3 times with cold PBS, then collected by scraping into 4 mL of cold PBS containing protease and phosphatase inhibitors. Cells were pelleted by centrifugation at 1350 g at 4 ℃ for 5 minutes and immediately frozen in liquid nitrogen. The frozen samples were sent to ActivX Biosciences (La Jolla, CA) for the remainder of the KiNativ profiling experiment4.
(§5) Protein expression and purification
(§6) Human EGFR kinase domain (residues 696-1022) with T790M and V948R mutations was cloned with an N-terminal, protease cleavable His -GST tag. Recombinant protein was expressed in SF9 insect cells using baculovirus generated from the pFastBac system (Thermo Fisher) .
(§7) Briefly, cells at a density of ~2x10^6 cells/mL were infected with 1% (v/v) virus stock and grown for ~72 hours before harvesting and freezing the cell pellet . Infected cells were lysed in buffer A (50 mM Tris pH 8.0, 500 mM NaCl, 5% glycerol, 0.5 mM Tris(2-carboxyethyl)phosphine [TCEP]), ultracentrifuged at >200,000 rcf for 1 h, and the supernatant flo wed through Ni-NTA resin by gravity. The resin was washed with buffer A supplemented with 40 mM imidazole by […]

CDK5 = tested on: T2, CDK5; details: 2.5 µM
T2 construct: purchased ActivX Biosciences (KiNativ)
Description: as §1, §2, §3, §4, §5, §6, §7

CaMKK2 = tested on: T3, CaMKK2; details: 2.5 µM
T3 construct: purchased ActivX Biosciences (KiNativ)
Description: as §1, §2, §3, §4, §5, §6, §7

DGKA = tested on: T4, DGKA; details: 2.5 µM; ATP; IDPVPNTHPLLVFVNPKSGGK
T4 construct: purchased ActivX Biosciences (KiNativ)
Description: as §1, §2, §3, §4, §5, §6, §7

EGFR, EGFR-L858R = tested on: T5, EGFR, EGFR-L858R; details: 2.5 µM
T5 construct: purchased ActivX Biosciences (KiNativ)
Description: as §1, §2, §3, §4, §5, §6, §7

EphB4 = tested on: T6, EphB4; details: 2.5 µM; Activation Loop; FLEENSSDPTYTSSLGGKIPIR
T6 construct: purchased ActivX Biosciences (KiNativ)
Description: as §1, §2, §3, §4, §5, §6, §7

GCK = tested on: T7, GCK; details: 2.5 µM
T7 construct: purchased ActivX Biosciences (KiNativ)
Description: as §1, §2, §3, §4, §5, §6, §7

HER2/ErbB2 = tested on: T8, HER2/ErbB2; details: 2.5 µM
T8 construct: purchased ActivX Biosciences (KiNativ)
Description: as §1, §2, §3, §4, §5, §6, §7

IKKa = tested on: T9, IKKa; details: 2.5 µM; Lys2; DLKPENIVLQDVGGK
T9 construct: purchased ActivX Biosciences (KiNativ)
Description: as §1, §2, §3, §4, §5, §6, §7

MAP3K4 = tested on: T10, MAP3K4; details: 2.5 µM
T10 construct: purchased ActivX Biosciences (KiNativ)
Description: as §1, §2, §3, §4, §5, §6, §7

MAP3K5 = tested on: T11, MAP3K5; details: 2.5 µM; Lys2; DIKGDNVLINTYSGVLK
T11 construct: purchased ActivX Biosciences (KiNativ)
Description: as §1, §2, §3, §4, §5, §6, §7

MAP4K3 = tested on: T12, MAP4K3; details: 2.5 µM
T12 construct: purchased ActivX Biosciences (KiNativ)
Description: as §1, §2, §3, §4, §5, §6, §7

MARK1, MARK2 = details: 2.5 µM; Lys1; EVAVKIIDK
Description: as §1, §2, §3, §4, §5, §6, §7

MARK2 = tested on: T13, MARK2; details: 2.5 µM; Lys1; EVAVKIIDKTQLNSSSLQK
T13 construct: purchased ActivX Biosciences (KiNativ)
Description: as §1, §2, §3, §4, §5, §6, §7

MLK1 = tested on: T14, MLK1; details: 2.5 µM; Lys2; DLKSSNILILQK
T14 construct: purchased ActivX Biosciences (KiNativ)
Description: as §1, §2, §3, §4, §5, §6, §7

MRCKb = tested on: T15, MRCKb; details: 2.5 µM; Lys2; DIKPDNVLLDVNGHIR
T15 construct: purchased ActivX Biosciences (KiNativ)
Description: as §1, §2, §3, §4, §5, §6, §7

MST1, MST2 = details: 2.5 µM; Lys2; DIKAGNILLNTEGHAK
Description: as §1, §2, §3, §4, §5, §6, §7

NEK9 = tested on: T16, NEK9; details: 2.5 µM
T16 construct: purchased ActivX Biosciences (KiNativ)
Description: as §1, §2, §3, §4, §5, §6, §7

PIP5K3 = tested on: T17, PIP5K3; details: 2.5 µM; ATP; GGKSGAAFYATEDDRFILK
T17 construct: purchased ActivX Biosciences (KiNativ)
Description: as §1, §2, §3, §4, §5, §6, §7

PITSLRE = tested on: T18, PITSLRE; details: 2.5 µM; Lys2; DLKTSNLLLSHAGILK
T18 construct: purchased ActivX Biosciences (KiNativ)
Description: as §1, §2, §3, §4, §5, §6, §7

PKD3 = tested on: T19, PKD3; details: 2.5 µM
T19 construct: purchased ActivX Biosciences (KiNativ)
Description: as §1, §2, §3, §4, §5, §6, §7

RSK1 domain2 = tested on: T20, RSK1 domain2; details: 2.5 µM; Lys2; DLKPSNILYVDESGNPECLR
T20 construct: RSK1 domain2; purchased ActivX Biosciences (KiNativ)
Description: as §1, §2, §3, §4, §5, §6, §7

STLK6 = tested on: T21, STLK6; details: 2.5 µM; Lys1; HTPTGTLVTIKITNLENCNEER
T21 construct: purchased ActivX Biosciences (KiNativ)
Description: as §1, §2, §3, §4, §5, §6, §7

[1] = Activation Loop, LLDIDETEYHADGGKVPIK

| Compound | Inhibition (BARK1) | Inhibition (CDK5; Lys1, NRETHEIVALKR) | Inhibition (CDK5; Lys2, DLKPQNLLINR) | Inhibition (CaMKK2; Lys1, LAYNENDNTYYAMKVLSK) | Inhibition (CaMKK2; Lys2, DIKPSNLLVGEDGHIK) | Inhibition (DGKA) | Inhibition (EGFR, EGFR-L858R; Lys1, IPVAIKELR) | Inhibition (EphB4) | Inhibition (GCK; Lys1, DTVTSELAAVKIVK) | Inhibition (GCK; Lys2, DIKGANLLLTLQGDVK) | Inhibition (HER2/ErbB2; [1]) | Inhibition (HER2/ErbB2; Lys1, GIWIPDGENVKIPVAIKVLR) | Inhibition (IKKa) | Inhibition (MAP3K4; Lys1, VYTCISVDTGELMAMKEIR) | Inhibition (MAP3K4; Lys2, DIKGANIFLTSSGLIK) | Inhibition (MAP3K5) | Inhibition (MAP4K3; Lys1, NVNTGELAAIKVIK) | Inhibition (MAP4K3; Lys2, DIKGANILLTDNGHVK) | Inhibition (MARK1, MARK2) | Inhibition (MARK2) | also measured |
| --- | --- | --- | --- | --- | --- | --- | --- | --- | --- | --- | --- | --- | --- | --- | --- | --- | --- | --- | --- | --- | --- |
| C=CC(=O)Nc1cc(Nc2nccc(-c3cn(C)c4ccccc34)n2)c(OC)cc1N(C)CCN(C)C [Osimertinib, osimertinib, reference compound] | -15.7% | -40.7% | 26.2% | 73.3% | 60.8% | -5.7% | 96.8% | 19.2% | -23.8% | 15.4% | 82.4% | 89.1% | -19.3% | 0.9% | -3.4% | 21.0% | -4.2% | 3.2% | -15.4% | 7.8% | Inhibition (EGFR, EGFR-L858R; Activation Loop, […]): 90.8%; Inhibition (MLK1): 34.9%; Inhibition (MRCKb): -26.5%; Inhibition (MST1, MST2): 17.9%; Inhibition (NEK9; Activation Loop, LGDYGLAKK): -11.0%; Inhibition (NEK9; Lys1, RTEDDSLVVWKEVDLTR): -18.7%; Inhibition (NEK9; Lys2, DIKTLNIFLTK): -12.2%; Inhibition (PIP5K3): 49.0%; Inhibition (PITSLRE): -3.8%; Inhibition (PKD3; Lys1, DVAIKVIDK): -11.4%; Inhibition (PKD3; Lys2, NIVHCDLKPENVLLASAEPFPQVK): -11.6%; Inhibition (RSK1 domain2): -13.9%; Inhibition (STLK6): 12.6% |
| C=CC(=O)Nc1cc(C(=O)Nc2nc3cccc(C)c3n2[C@@H]2CCCCN(C(=O)C=C)C2)cs1 [ZNL-0056] | 17.8% | -65.5% | 18.0% | 74.6% | 73.1% | 14.0% | 94.3% | -4.5% | -6.8% | 0.9% | 65.9% | 60.7% | 5.3% | 16.4% | -19.0% | -61.4% | 9.4% | 21.1% | 11.4% | 25.2% | Inhibition (EGFR, EGFR-L858R; Activation Loop, LLGAEEKEYHAEGGKVPIK): 83.2%; Inhibition (MLK1): -4.3%; Inhibition (MRCKb): 14.5%; Inhibition (MST1, MST2): 16.1%; Inhibition (NEK9; Activation Loop, LGDYGLAKK): -6.5%; Inhibition (NEK9; Lys1, RTEDDSLVVWKEVDLTR): 3.2%; Inhibition (NEK9; Lys2, DIKTLNIFLTK): 4.4%; Inhibition (PIP5K3): 20.7%; Inhibition (PITSLRE): 20.7%; Inhibition (PKD3; Lys1, DVAIKVIDK): -14.1%; Inhibition (PKD3; Lys2, NIVHCDLKPENVLLASAEPFPQVK): 3.5%; Inhibition (RSK1 domain2): 11.8%; Inhibition (STLK6): 16.7% |
